Like-named read-outs stand apart in the source and are kept apart here.
Molecular target: T1, SIRT1 (Homo sapiens, UniProt Q96EB6)
T1 sequence (Q96EB6 1-747): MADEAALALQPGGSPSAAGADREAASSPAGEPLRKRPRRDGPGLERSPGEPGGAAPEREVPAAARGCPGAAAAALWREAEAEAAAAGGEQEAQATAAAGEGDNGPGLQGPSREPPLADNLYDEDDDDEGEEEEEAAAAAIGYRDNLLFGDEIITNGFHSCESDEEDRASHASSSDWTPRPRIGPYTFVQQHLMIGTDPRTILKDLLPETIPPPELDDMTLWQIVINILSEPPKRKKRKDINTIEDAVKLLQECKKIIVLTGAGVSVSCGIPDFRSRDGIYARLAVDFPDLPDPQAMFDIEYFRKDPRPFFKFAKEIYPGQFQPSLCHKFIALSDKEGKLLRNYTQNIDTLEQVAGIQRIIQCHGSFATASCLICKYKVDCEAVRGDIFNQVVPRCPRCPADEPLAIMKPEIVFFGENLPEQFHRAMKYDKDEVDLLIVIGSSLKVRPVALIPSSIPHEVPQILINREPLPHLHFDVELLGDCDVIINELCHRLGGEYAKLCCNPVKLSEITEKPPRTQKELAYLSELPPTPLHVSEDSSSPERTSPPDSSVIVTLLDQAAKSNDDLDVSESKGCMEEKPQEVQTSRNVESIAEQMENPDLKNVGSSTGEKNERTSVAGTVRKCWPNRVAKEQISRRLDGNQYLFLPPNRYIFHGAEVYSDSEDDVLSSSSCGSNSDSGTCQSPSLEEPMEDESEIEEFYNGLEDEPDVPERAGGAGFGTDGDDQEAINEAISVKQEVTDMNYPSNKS
Assay: TAMRA based mass spectrometry assay of SIRT1 activity
Assay type: biochemical
Settings: for Emax: read-out: TAMRA % Fold Act
Excerpt: Mass spectrometry based assays were used to identify modulators of SIRT1 activity. The TAMRA based assay utilized a peptide having 20 amino acid residues as follows: Ac-EE-K(biotin)-[…](Ac)NleSTEG-K(5TMR)-EE-NH2 (SEQ ID NO: 1), wherein K(Ac) is an acetylated lysine residue and Nle is a norleucine. The peptide was labeled with the fluorophore 5TMR (excitation 540 nm/emission 580 nm) at the C-terminus. The sequence of the peptide substrate was based on p53 with several modifications. In addition, the methionine residue naturally present in the sequence was replaced with the norleucine because the methionine may be susceptible to oxidation during synthesis and purification. The Trp based assay utilized a peptide having an amino acid residues as follows: Ac-R-H-K-K(Ac)-W-NH2 (SEQ ID NO: 2).
The TAMRA based mass spectrometry assay was conducted as follows: 0.5 μM peptide substrate and 120 μM βNAD^+ was incubated with 10 nM SIRT1 for 25 minutes at 25° C. in a reaction buffer (50 mM Tris-acetate pH 8, 137 mM NaCl, 2.7 mM KCl, 1 mM MgCl2, 5 mM DTT, 0.05% BSA). The SIRT1 protein was obtained by cloning the SirT1 gene into a T7-promoter containing vector, which was then transformed and expressed in BL21(DE3) bacterial cells. Test compound was added at varying concentrations to this reaction mixture and the resulting reactions were monitored. After the 25 minute incubation with SIRT1, 10 μL of 10% formic acid was added to stop the reaction. The resulting reactions were sealed and frozen for later mass spec analysis. Determination of the amount of deacetylated substrate peptide formed (or, alternatively, the amount of O-acetyl-ADP-ribose (OAADPR) generated) by the sirtuin-mediated NAD-dependent deacetylation reaction allowed for the precise measurement of relative SIRT1 activity in the presence of varying concentrations of the test compound versus control reactions lacking the test compound.
A control for inhibition of sirtuin activity was conducted by adding 1 μL of 500 mM nicotinamide as a negative control at the start of the reaction (e.g., permits determination of maximum sirtuin inhibition). A control for activation of sirtuin activity was conducted using 10 nM of sirtuin protein, with 1 μL of DMSO in place of compound, to determine the amount of deacetylation of the substrate at a given time point within the linear range of the assay. This time point was the same as that used for test compounds and, within the linear range, the endpoint represents a change in velocity.
For the above assay, SIRT1 protein was expressed and purified as follows. The SirT1 gene was cloned into a T7-promoter containing vector and transformed into BL21(DE3). The protein was expressed by induction with 1 mM IPTG as an N-terminal His-tag fusion protein at 18° C. overnight and harvested at 30,000×g. Cells were lysed with lysozyme in lysis buffer (50 mM Tris-HCl, 2 mM Tris[2-carboxyethyl]phosphine (TCEP), 10 μM ZnCl2, 200 mM NaCl) and further treated with sonication for […] for complete lysis. The protein was purified over a Ni-NTA column (Amersham) and fractions containing pure protein were pooled, concentrated and run over a sizing column (Sephadex S200 26/60 global). The peak containing soluble protein was collected and run on an Ion-exchange column (MonoQ). Gradient elution (200 mM-500 mM NaCl) yielded pure protein. This protein was concentrated and dialyzed against dialysis buffer (20 mM Tris-HCl, 2 mM TCEP) overnight. The protein was aliquoted and frozen at −80° C. until further use.

[1] = TAMRA assay, concentration giving 150% activation of SIRT1
[2] = TAMRA assay, percent maximum fold activation
[3] = TAMRA peptide substrate, concentration giving 150% activation of SIRT1
[4] = TAMRA peptide substrate, percent maximum fold activation
[5] = concentration of test compound giving 150% activation of SIRT1, TAMRA peptide substrate
[6] = percent maximum fold activation of SIRT1, TAMRA peptide substrate

Cc1nc2ccc(-c3ccccc3OC[C@H](O)CO)nn2c1C(=O)Nc1cnccn1 [Compound 775]
TAMRA EC1.5 (μM) [1]: A (EC1.5<1 μM) | Emax [2]: ≥ 350%

Cc1nc2ccc(-c3ccccc3Cl)nn2c1C(=O)Nc1cccnn1 [Compound 715]
TAMRA EC1.5 (μM) [1]: B (EC1.5 1-25 μM) | Emax [2]: ≥ 350%

CCOc1nccc(NC(=O)c2cnc3c(C)cc(-c4ccccc4C(F)(F)F)nn23)n1 [Compound 596]
TAMRA EC1.5 [3]: A (EC1.5<1 μM) | Emax [4]: ≥ 350%

O=C(Nc1ncc(N2CCOCC2)s1)c1cnc2ccc(-c3ccccc3C(F)(F)F)nn12 [Compound 151]
TAMRA EC1.5 (μM) [5]: A (EC1.5<1 μM) | Emax [6]: ≥ 350%

Cc1cc(C)nc(NC(=O)c2c(C)nn3ccc(-c4ccccc4C(F)(F)F)nc23)c1 [Compound 685]
TAMRA EC1.5 (μM) [1]: A (EC1.5<1 μM) | Emax [2]: ≥ 350%

N#Cc1ccccc1-c1ccc2ncc(C(=O)Nc3ccccn3)n2n1 [Compound 200]
TAMRA EC1.5 (μM) [1]: B (EC1.5 1-25 μM) | Emax [2]: < 350%

Cc1cnc(NC(=O)c2cnc3ccc(-c4ccccc4OC(F)(F)F)nn23)s1 [Compound 397]
TAMRA EC1.5 [3]: A (EC1.5<1 μM) | Emax [4]: < 350%

Cc1cc(-c2ccccc2C(F)(F)F)nn2c(C(=O)Nc3cc(N4CCCC4)ncn3)cnc12 [Compound 646]
TAMRA EC1.5 (μM) [1]: A (EC1.5<1 μM) | Emax [2]: ≥ 350%

Cc1nc2ccc(-c3ccccc3Cl)nn2c1NC(=O)c1cnccn1 [Compound 347]
TAMRA EC1.5 (μM) [1]: C (EC1.5>25 μM) | Emax [2]: < 350%

O=C(Nc1cncc(F)c1)c1cnn2ccc(-c3ccccc3OC(F)(F)F)nc12 [Compound 660]
TAMRA EC1.5 (μM) [1]: A (EC1.5<1 μM) | Emax [2]: ≥ 350%

O=C(Nc1cnn2ccc(-c3ccccc3C(F)(F)F)nc12)c1cccc(N2CCOCC2)n1 [Compound 256]
TAMRA EC1.5 (μM) [1]: A (EC1.5<1 μM) | Emax [2]: ≥ 350%

Cc1cc(C)nc(NC(=O)c2cnn3ccc(-c4ccccc4OC(F)(F)F)nc23)c1 [Compound 605]
TAMRA EC1.5 (μM) [1]: A (EC1.5<1 μM) | Emax [2]: ≥ 350%

O=C(Nc1cnc2ccc(-c3ccccc3C(F)(F)F)nn12)c1ncccn1 [Compound 121]
TAMRA EC1.5 (μM) [5]: A (EC1.5<1 μM) | Emax [6]: ≥ 350%

O=C(Nc1cnc2ccc(-c3ccccc3C(F)(F)F)nn12)c1cccc(OCC(O)CO)n1 (stereo not drawn) [Compound 235]
TAMRA EC1.5 (μM) [1]: A (EC1.5<1 μM) | TAMRA % Fold Act [2]: A (Fold activation ≥350%)

O=C(Nc1cnc2ccc(-c3ccccc3C(F)(F)F)nn12)c1ncc(F)cc1F [Compound 440]
TAMRA EC1.5 [3]: A (EC1.5<1 μM) | Emax [4]: ≥ 350%

Cc1cc(-c2ccccc2C(F)(F)F)nn2c(NC(=O)c3nccs3)cnc12 [Compound 414]
TAMRA EC1.5 [3]: A (EC1.5<1 μM) | Emax [4]: ≥ 350%

O=C(Nc1cnc2ccc(-c3ccccc3OC(F)(F)F)nn12)c1cnccn1 [Compound 313]
TAMRA EC1.5 (μM) [1]: A (EC1.5<1 μM) | Emax [2]: ≥ 350%

COc1cccc(NC(=O)c2cnc3ccc(-c4ccccc4C(F)(F)F)nn23)n1 [Compound 103]
TAMRA EC1.5 (μM) [5]: A (EC1.5<1 μM) | Emax [6]: ≥ 350%

Cc1cc(NC(=O)c2c(C)nn3ccc(-c4ccccc4C(F)(F)F)nc23)ccn1 [Compound 629]
TAMRA EC1.5 (μM) [1]: A (EC1.5<1 μM) | Emax [2]: ≥ 350%

Cc1nc2ccc(-c3ccccc3C(F)F)nn2c1C(=O)Nc1ccnc(N2CCOCC2)c1 [Compound 72]
TAMRA EC1.5 (μM) [5]: A (EC1.5<1 μM) | Emax [6]: ≥ 350%

O=C(Nc1nccs1)c1cnc2ccc(-c3ccccc3C(F)(F)F)nn12 [Compound 15]
TAMRA EC1.5 (μM) [5]: B (EC1.5 1-25 μM) | Emax [6]: ≥ 350%

CC(C)c1nccc(C(=O)Nc2cnc3ccc(-c4ccccc4C(F)(F)F)nn23)n1 [Compound 274]
TAMRA EC1.5 (μM) [1]: A (EC1.5<1 μM) | Emax [2]: ≥ 350%

Cc1cc(C)c(NC(=O)c2c(C)nn3ccc(-c4ccccc4C(F)(F)F)nc23)cn1 [Compound 708]
TAMRA EC1.5 (μM) [1]: B (EC1.5 1-25 μM) | Emax [2]: ≥ 350%

Cc1cccc(NC(=O)c2cnc3ccc(-c4ccccc4OC[C@H](O)CO)nn23)n1 [Compound 804]
TAMRA EC1.5 (μM) [1]: A (EC1.5<1 μM) | Emax [2]: ≥ 350%

O=C(Nc1ccncn1)c1ncn2ccc(-c3ccccc3C(F)(F)F)nc12 [Compound 452]
TAMRA EC1.5 [3]: A (EC1.5<1 μM) | Emax [4]: ≥ 350%

Cc1nc2ccc(-c3ccccc3OC(F)(F)F)nn2c1C(=O)Nc1cccnn1 [Compound 470]
TAMRA EC1.5 [3]: A (EC1.5<1 μM) | Emax [4]: ≥ 350%

CCOc1ccc(NC(=O)c2c(C)nc3ccc(-c4cccc(C)c4)nn23)nn1 [Compound 760]
TAMRA EC1.5 (μM) [1]: A (EC1.5<1 μM) | Emax [2]: < 350%

O=C(Nc1cnccn1)c1cnn2ccc(-c3ccccc3OC(F)(F)F)nc12 [Compound 532]
TAMRA EC1.5 [3]: A (EC1.5<1 μM) | Emax [4]: ≥ 350%

Cc1nc2ccc(-c3ccccc3C(F)(F)F)nn2c1C(=O)Nc1ccncc1F [Compound 464]
TAMRA EC1.5 [3]: A (EC1.5<1 μM) | Emax [4]: ≥ 350%

O=C(Nc1ccccn1)c1cnc2ccc(-c3c(F)cccc3Cl)nn12 [Compound 162]
TAMRA EC1.5 (μM) [5]: B (EC1.5 1-25 μM) | Emax [6]: < 350%

O=C(Nc1cnn2ccc(-c3ccccc3OC(F)(F)F)nc12)c1ccccn1 [Compound 581]
TAMRA EC1.5 [3]: A (EC1.5<1 μM) | Emax [4]: ≥ 350%

O=C(Nc1ccnc(N2CCC2)c1)c1cnc2ccc(-c3ccc(F)c(F)c3F)nn12 [Compound 132]
TAMRA EC1.5 (μM) [5]: C (EC1.5>25 μM) | Emax [6]: < 350%

Cc1cccc(NC(=O)c2cnn3ccc(-c4ccccc4C(F)(F)F)nc23)n1 [Compound 500]
TAMRA EC1.5 [3]: A (EC1.5<1 μM) | Emax [4]: ≥ 350%

Cc1cc(-c2ccccc2C(F)(F)F)nn2c(C(=O)Nc3ccncn3)cnc12 [Compound 515]
TAMRA EC1.5 [3]: A (EC1.5<1 μM) | Emax [4]: ≥ 350%

O=C(Nc1ccccn1)c1cnc2ccc(-c3cccc(N4CCOCC4)c3)nn12 [Compound 10]
TAMRA EC1.5 (μM) [5]: B (EC1.5 1-25 μM) | Emax [6]: < 350%

Cc1cc(C)nc(NC(=O)c2cnc3ccc(-c4cccc(OCC(O)CO)c4)nn23)c1 (stereo not drawn) [Compound 417]
TAMRA EC1.5 [3]: A (EC1.5<1 μM) | Emax [4]: ≥ 350%

N#Cc1ccccc1-c1ccc2ncc(C(=O)Nc3ccncc3)n2n1 [Compound 203]
TAMRA EC1.5 (μM) [1]: B (EC1.5 1-25 μM) | Emax [2]: < 350%

Cc1cc(C)nc(NC(=O)c2c(C)nn3ccc(-c4ccccc4C(F)(F)F)nc23)n1 [Compound 777]
TAMRA EC1.5 (μM) [1]: A (EC1.5<1 μM) | Emax [2]: ≥ 350%

Cc1cc(-c2ccccc2C(F)(F)F)nn2c(NC(=O)c3ccncn3)cnc12 [Compound 409]
TAMRA EC1.5 [3]: A (EC1.5<1 μM) | Emax [4]: ≥ 350%

Source: patent US9957271B2, “Substituted bicyclic aza-heterocycles and analogues as sirtuin modulators” (GlaxoSmithKline, LLC, priority 2012, dated 2018)
